Structures are written as SMILES. ≈ marks a conversion by molar mass, not a printed value. Bounds are passed on as bounds.

Results on four molecules are retold here after ChEMBL document CHEMBL1131718, “Syntheses of (+/-)-shinflavanone and its structural analogues as potent inhibitors of bone resorption pits formation” (Bioorg Med Chem Lett, 1999).

Common to all, as to type: functional
Assay [1] can be described thus: Cytotoxicity of compound was measured on osteoclastic cells.
Assay [2] can be described thus: Ability to inhibit the resorption pits formation by osteoclast-like cell(OCL) induced by 1-alpha,25-dihydroxy vitamin D3.
Assay [3] can be described thus: Ability to inhibit the resorption pits formation by osteoclast-like cell(OCL) induced by 1-alpha,25-dihydroxy vitamin D3 at conc. 0.37 ug/ml.
The nature of assay [4]: Ability to inhibit the resorption pits formation by osteoclast-like cell(OCL) induced by 1-alpha,25-dihydroxy vitamin D3 at conc. 1.11 ug/ml.
A short description of assay [5]: Ability to inhibit the resorption pits formation by osteoclast-like cell(OCL) induced by 1-alpha,25-dihydroxy vitamin D3 at conc. 10.00 ug/ml.
Assay [6] can be described thus: Ability to inhibit the resorption pits formation by osteoclast-like cell(OCL) induced by 1-alpha,25-dihydroxy vitamin D3 at conc. 3.33 ug/ml.
A short description of assay [7]: Bone resorption pits formation by osteoclast-like cell(OCL) induced by 1-alpha,25-dihydroxy vitamin D3 at 0.37 ug/ml concentration.
Assay [8] is described as follows: Bone resorption pits formation by osteoclast-like cell(OCL) induced by 1-alpha,25-dihydroxy vitamin D3 at 1.11 ug/ml concentration.
Assay [9] is described as follows: Bone resorption pits formation by osteoclast-like cell(OCL) induced by 1-alpha,25-dihydroxy vitamin D3 at 10 ug/ml concentration.
Assay [10] is described as follows: Bone resorption pits formation by osteoclast-like cell(OCL) induced by 1-alpha,25-dihydroxy vitamin D3 at 3.33 ug/ml concentration.

In assay [1], `CC(C)=CCc1cc(C2CC(=O)c3cc(CC=C(C)C)c(O)cc3O2)ccc1O` (centres undefined) had a CC50 of 18.2 µg/mL (≈ 46.4 µM). This molecule came in with an IC50 in assay [2] of 5.7 µg/mL (≈ 14.5 µM). This molecule also displayed an inhibition at 0.37 µg/mL in assay [3] of 21.7%. This molecule returned an inhibition at 1.11 µg/mL in [4] of 41.2%. Testing at 10 µg/mL in assay [5] gave an inhibition of 84.2%. In assay [6], this molecule registered an inhibition at 3.33 µg/mL of 41.3%. In addition, the No. of pits in [7] was 112; in assay [8], 87; in assay [9] it was 23; in assay [10] it was 84.
The molecule `CC(C)=CCc1cc(C2CC(=O)c3ccc4c(c3O2)C=CC(C)(C)O4)ccc1O` (centres undefined) showed a CC50 in assay [1] of 16.8 µg/mL (≈ 43 µM). Also, in assay [2], the IC50 is 0.7 µg/mL (≈ 1.79 µM). The molecule further displayed an inhibition at 0.37 µg/mL in [3] of 48.3%. The molecule further returned an inhibition at 1.11 µg/mL in assay [4] of 54.1%. The same molecule showed an inhibition at 10 µg/mL in [5] of 78.1%. For the same molecule, the inhibition at 3.33 µg/mL in [6] came out at 62.2%. For the same molecule, the No. of pits is on record as 74 in [7], 68 in [8], 32 in assay [9] and 54 in assay [10].
In turn, `CC(C)=CCc1cc(C2CC(=O)c3cc(CC=C(C)C)c(O)c(CC=C(C)C)c3O2)ccc1O` (centres undefined) registered a CC50 in assay [1] of 10.4 µg/mL (≈ 22.6 µM). The same molecule registered an IC50 in assay [2] of 10.9 µg/mL (≈ 23.7 µM). Besides, the inhibition at 0.37 µg/mL in assay [3] was < 5%. This molecule also returned an inhibition at 1.11 µg/mL in [4] of 18.9%. In assay [5], this molecule returned an inhibition at 10 µg/mL of 45.2%. Also, the inhibition at 3.33 µg/mL in assay [6] is 24.4%. For the same molecule, the No. of pits in assay [7] worked out at 150; in [8], 120; in [9], 80; in assay [10], 108.
Molecule `CO[C@H]1[C@@H](OC)C[C@H](C)[C@@H](OC)C2=CC(=O)C=C(NC(=O)/C(C)=C/C=C/[C@H](OC)[C@@H](OC(N)=O)/C(C)=C/[C@@H]1C)C2=O` [HERBIMYCIN] returned a CC50 in assay [1] of 1.72 µg/mL (≈ 2.99 µM). In addition, half-maximal inhibition in assay [2] (IC50) required 1.1 µg/mL (≈ 1.91 µM). Testing at 0.37 µg/mL in assay [3] gave an inhibition of 37.8%. Also, in assay [4], the inhibition at 1.11 µg/mL is 50.7%.
